Data on 34 molecules can be found in patent US10377753B2, “Substituted 4-azaindoles and their use as GluN2B receptor modulators” (Janssen Pharmaceutica NV, priority 2015, dated 2019).

Counter-ions that a name gives are not always drawn.

The target in the assay is cloned human NR1/NR2B ion channels (Homo sapiens (Human), UniProt Q05586+Q13224). Briefly: HNR2BC: effects of test articles on cloned human NR1/NR2B ion channels expressed in mammalian cells (FLIPR calcium flux). In kind it is cell-based. Conditions: cloned human NR1/NR2B, Table 5. On the procedure: HNR2BC: Effects of Test Articles on Cloned Human NR1/NR2B Ion Channels Expressed in Mammalian Cells
cloned human NR1/NR2B ion channels, sequence (Q13224 27-1484, other chains not shown): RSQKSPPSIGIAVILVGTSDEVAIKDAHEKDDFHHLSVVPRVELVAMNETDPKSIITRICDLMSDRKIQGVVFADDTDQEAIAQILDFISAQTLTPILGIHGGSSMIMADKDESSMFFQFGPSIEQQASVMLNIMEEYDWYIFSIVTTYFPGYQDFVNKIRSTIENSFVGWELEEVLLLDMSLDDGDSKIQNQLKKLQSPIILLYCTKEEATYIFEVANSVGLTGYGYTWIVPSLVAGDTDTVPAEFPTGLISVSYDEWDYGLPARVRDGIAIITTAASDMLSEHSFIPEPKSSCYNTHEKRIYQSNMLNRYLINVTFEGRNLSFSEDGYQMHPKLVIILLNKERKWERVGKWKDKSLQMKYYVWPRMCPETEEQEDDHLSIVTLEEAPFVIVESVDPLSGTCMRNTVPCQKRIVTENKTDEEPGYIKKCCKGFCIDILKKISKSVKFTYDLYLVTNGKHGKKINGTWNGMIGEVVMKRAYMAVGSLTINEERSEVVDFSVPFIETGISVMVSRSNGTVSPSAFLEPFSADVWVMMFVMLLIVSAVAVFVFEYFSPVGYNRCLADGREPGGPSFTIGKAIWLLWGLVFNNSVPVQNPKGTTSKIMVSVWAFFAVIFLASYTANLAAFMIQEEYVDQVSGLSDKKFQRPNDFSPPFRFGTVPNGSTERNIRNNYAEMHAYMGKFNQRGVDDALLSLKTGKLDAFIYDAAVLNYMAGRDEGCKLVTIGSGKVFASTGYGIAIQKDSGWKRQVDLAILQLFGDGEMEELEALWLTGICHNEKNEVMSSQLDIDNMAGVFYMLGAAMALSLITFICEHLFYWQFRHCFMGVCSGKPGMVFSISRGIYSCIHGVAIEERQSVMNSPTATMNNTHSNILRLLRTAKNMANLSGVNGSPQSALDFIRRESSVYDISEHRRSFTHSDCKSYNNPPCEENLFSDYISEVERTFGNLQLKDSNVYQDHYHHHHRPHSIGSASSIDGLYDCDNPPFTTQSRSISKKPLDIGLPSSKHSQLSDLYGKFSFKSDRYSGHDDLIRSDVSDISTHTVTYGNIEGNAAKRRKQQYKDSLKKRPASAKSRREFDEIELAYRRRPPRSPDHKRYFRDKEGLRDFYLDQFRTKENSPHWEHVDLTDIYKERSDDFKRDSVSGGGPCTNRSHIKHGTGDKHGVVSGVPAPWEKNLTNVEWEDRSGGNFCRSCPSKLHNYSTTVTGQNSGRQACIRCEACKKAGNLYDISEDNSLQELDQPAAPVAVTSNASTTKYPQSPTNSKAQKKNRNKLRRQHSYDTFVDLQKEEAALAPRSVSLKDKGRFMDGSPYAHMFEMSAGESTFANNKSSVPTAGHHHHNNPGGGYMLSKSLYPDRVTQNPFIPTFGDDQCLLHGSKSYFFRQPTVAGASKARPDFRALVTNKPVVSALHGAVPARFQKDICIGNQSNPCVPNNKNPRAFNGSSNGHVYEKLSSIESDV
NMDA receptors are ion channels that are highly permeable to Ca^2+ ions, rendering it possible to monitor NMDA receptor function using cell-based calcium flux assay. In this assay, co-agonists glutamate and glycine are added to cells heterologously expressing human GluN1/GluN2B NMDA receptors to initiate cellular Ca^2+ influx. The time course of the changes in intracellular calcium is measured using a fluorescent dye and a FLIPR (Fluorometric Imaging Plate Reader) device.
Twenty four hours before measurements, the expression of the NMDA receptors in the stable cell line is induced with Tet-On inducible system in the presence of a non-selective NMDA receptor blocker. On the day of the experiment, cell culture media is carefully washed and the cells are loaded with Calcium 5 Dye Kit (Molecular Devices) in dye loading buffer containing 137 mM NaCl, 4 mM KCl, 2 mM CaCl2, 0.5 mM MgCl2, 10 mM HEPES and 5 mM D-glucose; pH 7.4. After 1 h incubation at the room temperature, the dye is washed away with the assay buffer (137 mM NaCl, 4 mM KCl, 2 mM CaCl2, 0.01 mM EDTA, 10 mM HEPES and 5 mM D-glucose; pH 7.4) In the FLIPR TETRA reader, various concentrations of the test compounds are added to the cells for 5 min while fluorescence is monitored to detect potential agonist activity. Next, co-agonists, glutamate and glycine are added for another 5 minutes. The concentration of glutamate corresponding to ˜EC80 is used to maximize the assay's signal window and ability to detect NMDA receptor antagonists and negative allosteric modulators. A saturating concentration (10 μM) of glycine is also present in the assay. […] The fluorescent signal in the presence of test compounds is quantified and normalized to the signal defined by the appropriate control wells.
Consider `O=C(Cn1cc(Cl)c2ncc(-c3ccc(F)c(F)c3)cc21)N1CC(F)(F)C1` [Example 34, 2-[3-Chloro-6-(3,4-difluorophenyl)pyrrolo[3,2-b]pyridin-1-yl]-1-(3,3-difluoroazetidin-1-yl)ethanone], for which the pIC50 (usually the negative decadic logarithm of the IC50, by convention in mol/L) came out at 7.8.
In the case of `O=C(Cn1cc(Cl)c2ncc(-c3ccc(F)c(C(F)(F)F)c3)cc21)N1CC(F)C1` [Example 35, 2-[3-Chloro-6-[4-fluoro-3-(trifluoromethyl)phenyl]pyrrolo[3,2-b]pyridin-1-yl]-1-(3-fluoroazetidin-1-yl)ethanone], the IC50 – broadly, the concentration that gives 50% inhibition – is 200 nM.
Turning to `O=C(Cn1cc(Cl)c2ncc(-c3cccc(C(F)(F)F)c3)cc21)N1CC(F)(F)C1` [Example 36, 2-[3-Chloro-6-[3-(trifluoromethyl)phenyl]pyrrolo[3,2-b]pyridin-1-yl]-1-(3,3-difluoroazetidin-1-yl)ethanone], the 50% inhibitory concentration (IC50) is 100 nM.
The same measure, in the same setting: as for `Cc1cc2ncc(-c3ccc(F)cc3)cc2n1CC(=O)N1CCCC1` [Example 37, 2-[6-(4-Fluorophenyl)-2-methyl-pyrrolo[3,2-b]pyridin-1-yl]-1-pyrrolidin-1-yl-ethanone], the figure is 1000 nM; as for `Cc1cc2ncc(-c3ccc(F)cc3)cc2n1CC(=O)NC1CC1` [Example 38, N-Cyclopropyl-2-[6-(4-fluorophenyl)-2-methyl-pyrrolo[3,2-b]pyridin-1-yl]acetamide], 5010 nM.
On the same count and under the same terms, to `O=C(Cn1cc(Cl)c2ncc(-c3cc(F)c(F)c(F)c3)cc21)N1CC(F)C1` [Example 39, 2-[3-Chloro-6-(3,4,5-trifluorophenyl)pyrrolo[3,2-b]pyridin-1-yl]-1-(3-fluoroazetidin-1-yl)ethanone] belongs 31.6 nM; to `O=C(Cn1cc(Cl)c2ncc(-c3ccc(F)c(C(F)(F)F)c3)cc21)N1CC(F)(F)C1` [Example 40, 2-[3-Chloro-6-[4-fluoro-3-(trifluoromethyl)phenyl]pyrrolo[3,2-b]pyridin-1-yl]-1-(3,3-difluoroazetidin-1-yl)ethanone], 501 nM; to `Cc1cccc(-c2cnc3cc(C)n(CC(=O)N4CCC4)c3c2)c1` [Example 41, 1-(Azetidin-1-yl)-2-[2-methyl-6-(m-tolyl)pyrrolo[3,2-b]pyridin-1-yl]ethanone], 25.1 nM.
For the molecule `Cc1cc2ncc(-c3ccccc3)cc2n1CC(=O)N1CCCC1` [Example 42, 2-(2-Methyl-6-phenyl-pyrrolo[3,2-b]pyridin-1-yl)-1-pyrrolidin-1-yl-ethanone], the IC50 is 2510 nM.
With `Cc1cccc(-c2cnc3cc(C)n(CC(=O)N4CCCC4)c3c2)c1` [Example 44, 2-[2-Methyl-6-(m-tolyl)pyrrolo[3,2-b]pyridin-1-yl]-1-pyrrolidin-1-yl-ethanone], the IC50 was 200 nM.
Still for that read-out and setting: to `Cc1cccc(-c2cnc3cc(C)n(CC(=O)N4CCOCC4)c3c2)c1` [Example 45, 2-[2-Methyl-6-(m-tolyl)pyrrolo[3,2-b]pyridin-1-yl]-1-morpholino-ethanone] belongs 501 nM; to `Cc1cc2ncc(-c3ccc(F)cc3)cc2n1CC(=O)N1CCC1` [Example 46, 1-(Azetidin-1-yl)-2-[6-(4-fluorophenyl)-2-methyl-pyrrolo[3,2-b]pyridin-1-yl]ethanone], 501 nM.
`Cc1cc2ncc(-c3ccccc3)cc2n1CC(=O)N1CCC1` [Example 47, 1-(Azetidin-1-yl)-2-(2-methyl-6-phenyl-pyrrolo[3,2-b]pyridin-1-yl)ethanone]: the half-inhibitory concentration (IC50) is 79.4 nM.
As for `O=C(Cn1cc(Cl)c2ncc(-c3cccc(C(F)(F)F)c3)cc21)N1CC(F)C1` [Example 48, 2-[3-Chloro-6-[3-(trifluoromethyl)phenyl]pyrrolo[3,2-b]pyridin-1-yl]-1-(3-fluoroazetidin-1-yl)ethanone], the IC50 is 631 nM.
As to `O=C(Cn1cc(Cl)c2ncc(-c3cc(F)c(F)c(F)c3)cc21)N1CC(F)(F)C1` [Example 49, 2-[3-Chloro-6-(3,4,5-trifluorophenyl)pyrrolo[3,2-b]pyridin-1-yl]-1-(3,3-difluoroazetidin-1-yl)ethanone], the IC50 is 200 nM.
As to `O=C(Cn1cc(Cl)c2ncc(-c3ccc(F)c(F)c3F)cc21)N1CC(F)(F)C1` [Example 50, 2-[3-Chloro-6-(2,3,4-trifluorophenyl)pyrrolo[3,2-b]pyridin-1-yl]-1-(3,3-difluoroazetidin-1-yl)ethanone], the IC50 was 39.8 nM.
Take `Cc1cccc(-c2cnc3cc(C)n(CC(=O)NC4CC4)c3c2)c1` [Example 51, N-Cyclopropyl-2-[2-methyl-6-(m-tolyl)pyrrolo[3,2-b]pyridin-1-yl]acetamide]: the half-maximal inhibitory concentration (IC50) was 63.1 nM.
For `Cc1cc2ncc(-c3ccccc3)cc2n1CC(=O)N1CCOCC1` [Example 52, 2-(2-Methyl-6-phenyl-pyrrolo[3,2-b]pyridin-1-yl)-1-morpholino-ethanone], the IC50 is 1260 nM.
As to `Cc1cccc(-c2cnc3c(Cl)cn(CC(=O)N4CC(F)(F)C4)c3c2)c1` [Example 53, 2-[3-Chloro-6-(m-tolyl)pyrrolo[3,2-b]pyridin-1-yl]-1-(3,3-difluoroazetidin-1-yl)ethanone], the 50% inhibitory concentration (IC50) was 5010 nM.
Regarding `Cc1cccc(-c2cnc3c(Cl)cn(CC(=O)N4CC(F)C4)c3c2)c1` [Example 54, 2-[3-Chloro-6-(m-tolyl)pyrrolo[3,2-b]pyridin-1-yl]-1-(3-fluoroazetidin-1-yl)ethanone], the IC50 was 63.1 nM.
For `O=C(Cn1cc(Cl)c2ncc(-c3ccccc3)cc21)N1CC(F)(F)C1` [Example 55, 2-(3-Chloro-6-phenyl-pyrrolo[3,2-b]pyridin-1-yl)-1-(3,3-difluoroazetidin-1-yl)ethanone], the IC50 was 31.6 nM.
Consider `O=C(Cn1cc(Cl)c2ncc(-c3ccccc3)cc21)N1CC(F)C1` [Example 56, 2-(3-Chloro-6-phenyl-pyrrolo[3,2-b]pyridin-1-yl)-1-(3-fluoroazetidin-1-yl)ethanone], for which the IC50 is 50.1 nM.
In the case of `O=C(Cn1cc(Cl)c2ncc(-c3ccc(F)cc3)cc21)N1CC(F)(F)C1` [Example 57, 2-[3-Chloro-6-(4-fluorophenyl)pyrrolo[3,2-b]pyridin-1-yl]-1-(3,3-difluoroazetidin-1-yl)ethanone], the IC50 is 31.6 nM.
For the molecule `O=C(Cn1cc(Cl)c2ncc(-c3ccc(F)cc3)cc21)N1CC(F)C1` [Example 58, 2-[3-Chloro-6-(4-fluorophenyl)pyrrolo[3,2-b]pyridin-1-yl]-1-(3-fluoroazetidin-1-yl)ethanone], the IC50 is 25.1 nM.
For `Cc1cc(Cn2ccc3ncc(-c4ccc(F)cc4C)cc32)no1` [Example 59, 3-[[6-(4-Fluoro-2-methyl-phenyl)pyrrolo[3,2-b]pyridin-1-yl]methyl]-5-methyl-isoxazole], the half-inhibitory concentration (IC50) was 39.8 nM.
`Cc1cc(Cn2ccc3ncc(-c4cccc(C(F)(F)F)c4)cc32)no1` [Example 60, 5-Methyl-3-[[6-[3-(trifluoromethyl)phenyl]pyrrolo[3,2-b]pyridin-1-yl]methyl]isoxazole]: the IC50 was 100 nM.
As for `Cc1cccc(-c2cnc3ccn(Cc4cc(C)on4)c3c2)c1` [Example 61, 5-Methyl-3-[[6-(m-tolyl)pyrrolo[3,2-b]pyridin-1-yl]methyl]isoxazole trifluoroacetate salt], the IC50 was 398 nM.
As to `Cc1cc(Cn2ccc3ncc(-c4ccccc4C)cc32)no1` [Example 62, 5-Methyl-3-[[6-(o-tolyl)pyrrolo[3,2-b]pyridin-1-yl]methyl]isoxazole trifluoroacetate salt], the IC50 was 126 nM.
As for `Cc1cc(Cn2ccc3ncc(-c4ccc(F)c(C)c4)cc32)no1` [Example 63, 3-[[6-(4-Fluoro-3-methyl-phenyl)pyrrolo[3,2-b]pyridin-1-yl]methyl]-5-methyl-isoxazole trifluoroacetate salt], the half-inhibitory concentration (IC50) was 200 nM.
In the case of `Cc1cc(Cn2ccc3ncc(-c4cc(F)cc(F)c4)cc32)no1` [Example 64, 3-[[6-(3,5-Difluorophenyl)pyrrolo[3,2-b]pyridin-1-yl]methyl]-5-methyl-isoxazole trifluoroacetate salt], the 50% inhibitory concentration (IC50) was 63.1 nM.
As for `Cc1cc(Cn2ccc3ncc(-c4ccc(F)cc4)cc32)no1` [Example 65, 3-[[6-(4-Fluorophenyl)pyrrolo[3,2-b]pyridin-1-yl]methyl]-5-methyl-isoxazole trifluoroacetate salt], the IC50 was 79.4 nM.
Still for that read-out and setting: as for `Cc1cc(-c2cnc3ccn(CC(=O)NC4CCC4)c3c2)ccc1F` [Example 66, N-Cyclobutyl-2-[6-(4-fluoro-3-methyl-phenyl)pyrrolo[3,2-b]pyridin-1-yl]acetamide trifluoroacetate salt], the figure is 200 nM; as for `Cc1cc(-c2cnc3c(Br)cn(CC(=O)N4CCC4)c3c2)ccc1F` [Example 68, 1-(Azetidin-1-yl)-2-[3-bromo-6-(4-fluoro-3-methyl-phenyl)pyrrolo[3,2-b]pyridin-1-yl]ethanone], 39.8 nM.
Turning to `Cc1cc(-c2cnc3c(F)cn(CC(=O)N4CCC4)c3c2)ccc1F` [Example 69, 1-(Azetidin-1-yl)-2-[3-fluoro-6-(4-fluoro-3-methyl-phenyl)pyrrolo[3,2-b]pyridin-1-yl]ethanone], the concentration for half-maximal inhibition (IC50) is 25.1 nM.
